Results reported in paper PMC6087734, “Loss of S100A1 expression leads to Ca^2+ release potentiation in mutant mice with disrupted CaM and S100A1 binding to CaMBD2 of RyR1” (Physiological Reports, 2018).
“Also recorded” adds a separate entry of the source. Residues, ends and D or L forms follow the SMILES beside them.

T1: S100A1 (recombinant human 15N-labeled, Ca2+-loaded) (Homo sapiens, UniProt P23297)
T1 construct: made in house
T1 sequence (P23297 1-94): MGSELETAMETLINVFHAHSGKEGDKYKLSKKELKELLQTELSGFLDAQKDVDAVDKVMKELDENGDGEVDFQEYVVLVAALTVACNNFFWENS

B1: S100A1, P23297 (protein)
chain: T1 sequence (P23297 1-94)
B2: S100A1: 21 kDa dimeric molecule characterized by its EF‐hand Ca^2+‐binding motifs (protein, UniProt P23297 1-94, looked up)
Protein S100-A1: T1 sequence (P23297 1-94)

Columns and labels:
CaM = details: ref Lau et al. 2014, cited from earlier work; for CaM binding, in words: isothermal calorimetry, rabbit RyR1 peptides; for affinity sequence of CaM for the CaMBDs, in words: ITC data
Text: There is substantial evidence that CaM and S100A1 may bind to multiple sites within the RyR1. […] Given the affinity of S100A1 for the CaMBDs, it is likely that the observed RyR1 re ...

[1] = molecular target: T1, S100A1 (recombinant human 15N-labeled, Ca2+-loaded); assay: ITC of S100A1 association with RyR1 CaMBD peptides; assay type: binding; details: for N (sites) / Kd / ΔG / ΔH: 37°C, two-site fit, mean ± SD, n = 3; for difference in affinity between the tight and weak peptide-binding site: ratio of KD at the two sites on S100A1 dimer; for S100A1 binding, in words: 10 mmol/L Ca2+
Description: All peptides were synthesized using […] peptide synthesis and their purity was determined to be >95% by high pressure liquid chromatography and mass spectrometry (Biosynthesis Inc., Lewisville, TX or GenScript, Piscataway, NJ). Three peptides derived from human RyR1 sequence were synthesized: CaMBD2, residues 3614‐3640, […]; CaMBD1, residues 1975‐1999, […]; and CaMBD3, residues 4303‐4326, […]. As they are internal peptides the C‐terminus was […] and N‐terminus was acetylated to neutralize the charged ends. The peptides stock were made in D6‐DMSO and their concentration were determined by quantitative amino acid analysis (Biosynthesis Inc., Lewisville, TX) and/or determined using the extinction coefficient for the methyl ester of N‐acetyl tryptophan, ε280 = 5600 cm^−1M^−1.
Expression and purification (>95% by SDS‐PAGE) of recombinant human ^15N‐labeled S100A1 was performed as previous described (Melville et al. 2017b). The concentrations of S100A1 stock solutions were determined using the Bio‐Rad Protein Assay (Bio‐Rad Inc., Hercules, CA) using a known concentration of BSA as the standard. Concentrations are given in S100A1 monomer concentration except where indicated.
Heat changes during the titration of each CaMBD peptide into Ca^2+‐S100A1 were measured using a VP‐ITC titration microcalorimeter (MicroCal, Inc., Northhampton, MA) as done previously (Wilder et al. 2003). All solutions were degassed under vacuum and equilibrated at 37°C prior to titration. For each titration the sample cell (1.4 mL) contained 10 mmol/L TES, pH 7.2, 15 mmol/L NaCl, and 10 mmol/L CaCl2, 0.5 mmol/L TCEP, <5% D6‐DMSO (from peptide stocks or equivalent D6‐DMSO added to controls), and 0.04 mmol/L CaMBD peptide, while the reference cell contained water. Upon equilibration, 0.20–0.35 mmol/L S100A1 (dimer concentration) prepared in the same buffer without peptide but equivalent D6‐DMSO was injected using the default injection rate with a time interval between each injection to allow the sample to return to baseline. The resulting titration curves were corrected for protein‐free buffer control.
Images were collected and evaluated using the same settings and enhancing parameters so that all images could be directly compared. Line‐scan images were analyzed using LSM examiner (Carl Zeiss, Jena, DE). Calculation of AP‐induced Ca^2+ signals were conducted using Origin Pro 8 (OriginLab Corporation, Northampton, MA, USA) and SPSS for Windows ver. 24.0 (SPSS Inc., Chicago, IL). Summary data were reported as mean ± SD. Normal distribution of data was assessed using the Kolmogorov–Smirnov test. Unpaired two sample Student's t‐test was used to test for differences between the means of the indo 1‐resting values and peak AP‐induced Ca^2+ transients from two different samples. ITC results were background buffer subtracted and analyzed using the Origin for ITC software (MicroCal, Northampton, MA) and fit using two‐site fitting model (Freire et al. 1990). Differences were considered significant when P < 0.05.

[2] = molecular target: RyR1 CaMBD3 peptide (site 1) (Homo sapiens); assay: ITC
[3] = molecular target: RyR1 CaMBD1 peptide (site 2) (Homo sapiens); assay: ITC
[4] = molecular target: RyR1 CaMBD1 peptide (site 1) (Homo sapiens); assay: ITC
[5] = molecular target: RyR1 CaMBD2 peptide (site 1) (Homo sapiens); assay: ITC
[6] = molecular target: RyR1 CaMBD3 peptide (site 2) (Homo sapiens); assay: ITC
[7] = molecular target: RyR1 CaMBD2 peptide (site 2) (Homo sapiens); assay: ITC
RyR1 = details: in vitro FRET; ref Rebbeck et al. 2016; cited from earlier work
Text: In fast‐type skeletal muscle the intracellular concentration of S100A1 was reported to be ~3 μmol/L (Haimoto and Kato 1987; Zimmer et al. 1991), with total intracellular concentration of CaM being about 5 μmol/L (Robertson et al. 1981).

[8] = peptide-binding site 1, ITC VP-ITC, 10 mmol/L TES pH 7.2, 15 mmol/L NaCl, 10 mmol/L CaCl2, 0.5 mmol/L TCEP, <5% D6-DMSO, 0.04 mmol/L peptide in cell, 0.20-0.35 mmol/L S100A1 (dimer) injected
[9] = peptide-binding site 1, ITC, pH 7.2, 10 mmol/L CaCl2
[10] = peptide-binding site 2, ITC, pH 7.2, 10 mmol/L CaCl2

| Molecule | CaM binding, in words (CaM) | N (sites) [1, 8] | Kd [1, 9] [µM] | ΔG [1, 9] [kcal/mol] | ΔH [1, 9] [kcal/mol] | Kd [1, 10] [µM] | N (sites) [1, 10] | ΔG [1, 10] [kcal/mol] | ΔH [1, 10] [kcal/mol] | difference in affinity between the tight and weak peptide-binding site [1] [fold] | affinity sequence of CaM for the CaMBDs, in words (CaM) | further results |
| --- | --- | --- | --- | --- | --- | --- | --- | --- | --- | --- | --- | --- |
| rCaMBD3: peptide from rabbit RyR1, residues 4295‐4325, Lau et al. 2014 (RLAAAAARALRGLSYRSLRRRVRRLRRLTAR; UniProt P11716 4295-4325, looked up, fragment) [reference compound] | CaM can bind | – | – | – | – | – | – | – | – | – | – | – |
| rCaMBD1: peptide from rabbit RyR1, residues 3614‐3640 (as printed), Lau et al. 2014 (KSKKAVWHKLLSKQRRRAVVACFRMTP; UniProt P11716 3614-3640, looked up, fragment) [reference compound] | CaM can bind | – | – | – | – | – | – | – | – | – | – | – |
| CSCC[C@H](NC(=O)[C@H](CCCNC(=N)N)NC(=O)[C@H](Cc1ccccc1)NC(=O)[C@H](CS)NC(=O)[C@H](C)NC(=O)[C@@H](NC(=O)[C@@H](NC(=O)[C@H](C)NC(=O)[C@H](CCCNC(=N)N)NC(=O)[C@H](CCCNC(=N)N)NC(=O)[C@H](CCCNC(=N)N)NC(=O)[C@H](CCC(N)=O)NC(=O)[C@H](CCCCN)NC(=O)[C@H](CO)NC(=O)[C@H](CC(C)C)NC(=O)[C@H](CC(C)C)NC(=O)[C@H](CCCCN)NC(=O)[C@H](Cc1c[nH]cn1)NC(=O)[C@H](Cc1c[nH]c2ccccc12)NC(=O)[C@@H](NC(=O)[C@H](C)NC(=O)[C@H](CCCCN)NC(=O)[C@H](CCCCN)NC(=O)[C@H](CO)NC(=O)[C@H](CCCCN)NC(C)=O)C(C)C)C(C)C)C(C)C)C(=O)N[C@H](C(=O)N1CCC[C@H]1C(N)=O)[C@@H](C)O [CaMBD2] (Ac-KSKKAVWHKLLSKQRRRAVVACFRMTP-NH2) | – | 0.78 ± 0.09 | 0.146 ± 0.0239 | -9.7 ± 0.1 | -11.4 ± 0.2 | 17 | 0.51 ± 0.15 | -6.8 ± 0.1 | -10.3 ± 3.0 | 114 | CaMBD2 > CaMBD3 > CaMBD1 | – |
| CC(=O)N[C@@H](CCCNC(=N)N)C(=O)N[C@@H](C)C(=O)N[C@@H](CC(C)C)C(=O)N[C@@H](CCCNC(=N)N)C(=O)NCC(=O)N[C@@H](CC(C)C)C(=O)N[C@@H](CO)C(=O)N[C@@H](Cc1ccc(O)cc1)C(=O)N[C@@H](CCCNC(=N)N)C(=O)N[C@@H](CO)C(=O)N[C@@H](CC(C)C)C(=O)N[C@@H](CCCNC(=N)N)C(=O)N[C@@H](CCCNC(=N)N)C(=O)N[C@@H](CCCNC(=N)N)C(=O)N[C@H](C(=O)N[C@@H](CCCNC(=N)N)C(=O)N[C@@H](CCCNC(=N)N)C(=O)N[C@@H](CC(C)C)C(=O)N[C@@H](CCCNC(=N)N)C(=O)N[C@@H](CCCNC(=N)N)C(=O)N[C@@H](CC(C)C)C(=O)N[C@H](C(=O)N[C@@H](C)C(=O)N[C@@H](CCCNC(=N)N)C(N)=O)[C@@H](C)O)C(C)C [CaMBD3] (Ac-RALRGLSYRSLRRRVRRLRRLTAR-NH2) | – | 1.79 ± 0.08 | 0.0089 ± 0.011 | -11.9 ± 1.2 | -3.6 ± 0.7 | 6.7 | 1.27 ± 0.07 | -7.4 ± 0.2 | -6.1 ± 0.9 | 755 | CaMBD2 > CaMBD3 > CaMBD1 | S100A1 binding, in words ([1]; ITC): binds with different affinities; also recorded: tightest S100A1 binding |
| rCaMBD2: peptide from rabbit RyR1, residues 1975‐1999 (as printed), Lau et al. 2014 (SRYALLMRAFTMSAAETARRTREFR; UniProt P11716 1975-1999, looked up, fragment) [reference compound] | CaM can bind | – | – | – | – | – | – | – | – | – | – | – |
| CC[C@H](C)[C@H](NC(=O)[C@H](CC(C)C)NC(=O)[C@H](CC(C)C)NC(=O)CNC(=O)[C@H](Cc1ccc(O)cc1)NC(=O)[C@H](CCCNC(=N)N)NC(=O)[C@H](CO)NC(C)=O)C(=O)N[C@@H](CCCCN)C(=O)N[C@@H](C)C(=O)N[C@@H](Cc1ccccc1)C(=O)N[C@@H](CO)C(=O)N[C@@H](CCSC)C(=O)N[C@H](C(=O)N[C@@H](C)C(=O)N[C@@H](C)C(=O)N[C@@H](CCC(=O)O)C(=O)N[C@H](C(=O)N[C@@H](C)C(=O)N[C@@H](CCCNC(=N)N)C(=O)N[C@@H](CCCNC(=N)N)C(=O)N[C@H](C(=O)N[C@@H](CCCNC(=N)N)C(=O)N[C@@H](CCC(=O)O)C(=O)N[C@@H](Cc1ccccc1)C(=O)N[C@@H](CCCNC(=N)N)C(N)=O)[C@@H](C)O)[C@@H](C)O)[C@@H](C)O [CaMBD1] (Ac-SRYGLLIKAFSMTAAETARRTREFR-NH2) | – | 1.14 ± 0.10 | 1.3 ± 0.284 | -8.4 ± 0.1 | -4.5 ± 0.7 | 21 | 0.75 ± 0.07 | -6.7 ± 0.2 | -10.8 ± 0.4 | 16 | CaMBD2 > CaMBD3 > CaMBD1 | S100A1 binding, in words ([1]; ITC): binds with different affinities; also recorded: weakest affinity |
| B1 | – | – | – | – | – | – | – | – | – | – | – | Kd [2]: 0.0089 µM; Kd [3]: 21 µM; Kd [4]: 1.3 µM; Kd [5]: 0.146 µM; Kd [6]: 6.7 µM; Kd [7]: 17 µM |
| B2 | – | – | – | – | – | – | – | – | – | – | – | S100A1 concentration required for RyR1 modulation, in words (RyR1): high unphysiological (micromolar) concentration |
